Results: article PMC11530689, “Anti colorectal cancer activity and in silico studies of novel pyridine nortopsentin analog as cyclin dependent kinase 6 inhibitor” (Scientific Reports, 2024)

Legend:
Experiment in all cases: NCI 60 cell line screen
786-0 = type: cell-based; conditions: 786-0, Renal Cancer; single concentration 10^−5 M
Procedure, shortened: (§1)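 Each of the sixty NCI cancer lines was challenged with compound at 10^-5 M, a single dose, for cytotoxicity evaluation.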

A549/ATCC = type: cell-based; conditions: Non-Small Cell Lung Cancer, single concentration 10^−5 M
Procedure, shortened: as §1

CAKI-1 = type: cell-based; conditions: CAKI-1, Renal Cancer; single concentration 10^−5 M
Procedure, shortened: as §1

COLO205 = type: cell-based; conditions: COLO205, Colon Cancer; single concentration 10^−5 M
Procedure, shortened: as §1

EKVX = type: cell-based; conditions: Non-Small Cell Lung Cancer, single concentration 10^−5 M
Procedure, shortened: as §1

HCT-15 = type: cell-based; conditions: HCT-15, Colon Cancer; single concentration 10^−5 M
Procedure, shortened: as §1

HOP-62 = type: cell-based; conditions: HOP-62, Non-Small Cell Lung Cancer; single concentration 10^−5 M
Procedure, shortened: as §1

MDA-MB-468 = type: cell-based; conditions: MDA-MB-468, Breast Cancer; single concentration 10^−5 M
Procedure, shortened: as §1

MOLT-4 = type: cell-based; conditions: MOLT-4, Leukemia; single concentration 10^−5 M
Procedure, shortened: as §1

NCI-H460 = type: cell-based; conditions: NCI-H460, Non-Small Cell Lung Cancer; single concentration 10^−5 M
Procedure, shortened: as §1

OVCAR-4 = type: cell-based; conditions: OVCAR-4, Ovarian Cancer; single concentration 10^−5 M
Procedure, shortened: as §1

OVCAR-8 = type: cell-based; conditions: OVCAR-8, Ovarian Cancer; single concentration 10^−5 M
Procedure, shortened: as §1

RPMI-8226 = type: cell-based; conditions: RPMI-8226, Leukemia; single concentration 10^−5 M
Procedure, shortened: as §1

RXF 393 = type: cell-based; conditions: RXF 393, Renal Cancer; single concentration 10^−5 M
Procedure, shortened: as §1

SN12C = type: cell-based; conditions: Renal Cancer, single concentration 10^−5 M
Procedure, shortened: as §1

SNB-19 = type: cell-based; conditions: SNB-19, CNS Cancer; single concentration 10^−5 M
Procedure, shortened: as §1

SNB-75 = type: cell-based; conditions: SNB-75, CNS Cancer; single concentration 10^−5 M
Procedure, shortened: as §1

SR = type: cell-based; conditions: Leukemia, single concentration 10^−5 M
Procedure, shortened: as §1

T-47D = type: cell-based; conditions: Breast Cancer, single concentration 10^−5 M
Procedure, shortened: as §1

U251 = type: cell-based; conditions: U251, CNS Cancer; single concentration 10^−5 M
Procedure, shortened: as §1

UACC-257 = type: cell-based; conditions: UACC-257, Melanoma; single concentration 10^−5 M
Procedure, shortened: as §1

UACC-62 = type: cell-based; conditions: UACC-62, Melanoma; single concentration 10^−5 M
Procedure, shortened: as §1

HCT-116 = type: cell-based, human; conditions: HCT-116, Colon Cancer; single concentration 10^−5 M
Experimental: The cytotoxic activity of nortopsintin analogs (4a-4j) was determined by the national cancer institute (NCI, Bethesda, Maryland, USA) against 60 different cancer cell lines at a single concentration of (10^-5 M). For the determination of IC50 value, we used MTT assay kit (Sigma) according to the manufacturer's protocol. HCT-116 cells were seeded into a 96-well plate at a concentration of 20,000 cells/well. After 24 h, the media was aspirated and replaced with serum-free media containing serial dilutions of the 4i compound. […] The percentage of cytotoxicity was calculated using the following equation: % Cytotoxicity = [1 - ([…])] × 100.

Row | Structure (SMILES) | Growth % (786-0) [%] | Growth % (A549/ATCC) [%] | Growth % (CAKI-1) [%] | Growth % (COLO205) [%] | Growth % (EKVX) [%] | Growth % (HCT-15) [%] | Growth % (HOP-62) [%] | Growth % (MDA-MB-468) [%] | Growth % (MOLT-4) [%] | Growth % (NCI-H460) [%] | Growth % (OVCAR-4) [%] | Growth % (OVCAR-8) [%] | Growth % (RPMI-8226) [%] | Growth % (RXF 393) [%] | Growth % (SN12C) [%] | Growth % (SNB-19) [%] | Growth % (SNB-75) [%] | Growth % (SR) [%] | Growth % (T-47D) [%] | Growth % (U251) [%] | other results
1 | COc1cc(OC)cc(-c2cc(-c3c[nH]c4ccccc34)nc(-c3c[nH]c4ccccc34)c2C#N)c1 [4f] | 104.74 | 98.51 | 91.03 | 110.17 | 91.45 | 101.68 | 96.31 | 92.23 | 98.62 | 103.37 | 101.53 | 102.00 | 98.96 | 107.63 | 95.11 | 96.57 | 87.63 | 81.27 | 98.31 | 99.96 | Growth % (UACC-257): 112.07%; Growth % (UACC-62): 93.55%; Growth % (HCT-116): 100.81%
2 | N#Cc1c(-c2ccc(O)cc2)cc(-c2c[nH]c3ccccc23)nc1-c1c[nH]c2ccccc12 [4j] | 101.37 | 105.12 | 90.60 | 111.37 | 100.08 | 57.19 | 94.38 | 101.94 | 87.60 | 103.74 | 94.07 | 99.60 | 101.54 | 83.24 | 95.63 | 108.35 | 90.85 | 76.19 | 98.31 | 96.90 | Growth % (UACC-257): 108.53%; Growth % (UACC-62): 96.73%; Growth % (HCT-116): 105.38%
3 | N#Cc1c(-c2ccccc2)cc(-c2c[nH]c3ccccc23)nc1-c1c[nH]c2ccccc12 [4a] | 102.19 | 98.73 | 87.26 | 108.26 | 83.07 | 99.26 | 92.66 | 93.05 | 102.45 | 106.27 | 103.65 | 98.73 | 100.70 | 94.99 | 95.61 | 97.62 | 81.21 | 96.68 | 86.69 | 94.26 | Growth % (UACC-257): 106.98%; Growth % (UACC-62): 94.92%; Growth % (HCT-116): 103.11%
4 | N#Cc1c(-c2ccc(F)cc2)cc(-c2c[nH]c3ccccc23)nc1-c1c[nH]c2ccccc12 [4d] | 99.50 | 101.42 | 92.51 | 113.48 | 92.76 | 99.59 | 100.69 | 99.29 | 103.02 | 104.14 | 101.04 | 100.20 | 100.93 | 111.59 | 98.76 | 102.08 | 98.55 | 89.11 | 89.92 | 94.85 | Growth % (UACC-257): 107.07%; Growth % (UACC-62): 98.33%; Growth % (HCT-116): 104.67%
5 | COc1cc(-c2cc(-c3c[nH]c4ccccc34)nc(-c3c[nH]c4ccccc34)c2C#N)cc(OC)c1OC [4g] | 102.99 | 99.60 | 75.97 | 106.57 | 87.27 | 100.84 | 87.93 | 93.79 | 100.72 | 106.65 | 103.83 | 98.26 | 97.18 | 120.31 | 91.09 | 98.31 | 77.85 | 94.92 | 96.11 | 100.17 | Growth % (UACC-257): 104.77%; Growth % (UACC-62): 87.61%; Growth % (HCT-116): 104.41%
6 | COc1ccc(-c2cc(-c3c[nH]c4ccccc34)nc(-c3c[nH]c4ccccc34)c2C#N)cc1 [4e] | 102.90 | 99.97 | 84.47 | 102.89 | 91.11 | 89.77 | 90.00 | 102.09 | 94.10 | 107.18 | 106.10 | 98.49 | 104.41 | 94.44 | 99.19 | 102.42 | 97.63 | 89.59 | 86.61 | 102.14 | Growth % (UACC-257): 107.78%; Growth % (UACC-62): 95.53%; Growth % (HCT-116): 106.07%
7 | N#Cc1c(-c2ccc([N+](=O)[O-])cc2)cc(-c2c[nH]c3ccccc23)nc1-c1c[nH]c2ccccc12 [4h] | 106.06 | 96.38 | 82.68 | 114.22 | 82.20 | 99.04 | 99.88 | 92.34 | 100.27 | 100.56 | 99.28 | 98.23 | 95.92 | 111.16 | 98.48 | 100.62 | 90.31 | 84.51 | 88.78 | 99.87 | Growth % (UACC-257): 104.66%; Growth % (UACC-62): 85.82%; Growth % (HCT-116): 100.64%
8 | N#Cc1c(-c2ccc(Cl)cc2)cc(-c2c[nH]c3ccccc23)nc1-c1c[nH]c2ccccc12 [4c] | 102.38 | 100.29 | 87.84 | 106.5 | 87.50 | 98.27 | 93.62 | 102.95 | 99.33 | 106.15 | 106.75 | 101.97 | 102.27 | 114.27 | 97.84 | 101.34 | 100.87 | 98.46 | 100.54 | 99.27 | Growth % (UACC-257): 108.88%; Growth % (UACC-62): 89.22%; Growth % (HCT-116): 106.26%
